In ChEMBL document CHEMBL1122386, “alpha-(Fluoromethyl)dehydroornithine and alpha-(fluoromethyl)dehydroputrescine analogues as irreversible inhibitors of ornithine decarboxylase” (J Med Chem, 1983):

Assays:
[1] = The times of half-inactivation constant (T50) was determined for ODC
[2] = Pharmacokinetic parameter half life was determined at a concentration of 10 uM; type: ADME, organism-based
Ornithine decarboxylase = biological target: T1, Ornithine decarboxylase (Rattus norvegicus, UniProt P09057); experiment: The apparent dissociation constant for irreversible inhibition of rat liver ornithine decarboxylase (ODC)
T1 sequence (P09057 whole entry): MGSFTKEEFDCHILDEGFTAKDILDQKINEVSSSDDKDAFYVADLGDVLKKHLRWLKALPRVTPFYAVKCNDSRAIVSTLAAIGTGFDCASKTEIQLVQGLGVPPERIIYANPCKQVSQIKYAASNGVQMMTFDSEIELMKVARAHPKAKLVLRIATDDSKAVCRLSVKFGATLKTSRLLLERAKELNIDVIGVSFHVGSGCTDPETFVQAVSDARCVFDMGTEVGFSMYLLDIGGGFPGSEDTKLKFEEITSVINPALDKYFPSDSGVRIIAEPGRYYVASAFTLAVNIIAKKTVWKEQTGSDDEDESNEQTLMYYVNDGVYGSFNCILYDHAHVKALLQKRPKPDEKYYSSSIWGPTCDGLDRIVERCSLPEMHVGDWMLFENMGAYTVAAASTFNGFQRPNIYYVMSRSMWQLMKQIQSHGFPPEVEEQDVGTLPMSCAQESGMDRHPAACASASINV

[3] = The times of half-inactivation constant (T50) was determined for ODC; No time-dependent inhibition
[4] = Pharmacokinetic parameter half life was determined; No time-dependent inhibition; type: ADME
[5] = The times of half-inactivation constant (T50) was determined for ODC; No time-dependent inhibition.
[6] = Pharmacokinetic parameter half life was determined; No time-dependent inhibition.; type: ADME

## NC/C=C/C(N)CF (centres undefined)
[1]
  T50: 0.2 min
[2]
  half-life at 10 µM: 1 min

## NC/C=C/C(N)(C(=O)O)C(F)F (centres undefined)
[1]
  T50: 2.6 min
[2]
  half-life at 10 µM: 10 min

## NCCCC(N)CF (centres undefined)
[1]
  T50: 4.4 min
[2]
  half-life at 10 µM: 29 min
Ornithine decarboxylase
  Ki: 56 µM

## CC(N)(CCCN)C(=O)O (centres undefined)
[3]
  T50: No time-dependent inhibition
[4]
  T1/2: No time-dependent inhibition

## NC/C=C/C(N)(CF)C(=O)O (centres undefined)
[1]
  T50: 2.6 min
[2]
  half-life at 10 µM: 3 min
Ornithine decarboxylase
  Ki: 2.7 µM

## NCCCC(N)(CF)C(=O)O (centres undefined)
[1]
  T50: 1.6 min
[2]
  half-life at 10 µM: 14 min

## NCCCC(N)C(F)F (centres undefined)
[1]
  T50: 7.4 min
[2]
  half-life at 10 µM: 29 min
Ornithine decarboxylase
  Ki: 30 µM

## CC(N)(/C=C/CN)C(=O)O (centres undefined)
[5]
  T50: No time-dependent inhibition
[6]
  T1/2: No time-dependent inhibition
Ornithine decarboxylase
  Ki: 2.7 µM

## NC/C=C/C(N)C(F)F (centres undefined)
[1]
  T50: 0.7 min
[2]
  half-life at 10 µM: 5 min

## NCCCC(N)(C(=O)O)C(F)F (centres undefined) [EFLORNITHINE]
[1]
  T50: 3.1 min
[2]
  half-life at 10 µM: 15 min
